Assay results as given in PubChem BioAssay AID2060496 (Molecular Pharmacology Branch, DTP, NCI, 2025).

System: 276233-004-R-J1-PDC complex spheroid viability
Assay: Anticancer human tumor 276233-004-R-J1-PDC patient-derived colon adenocarcinoma cell line growth inhibition [GQUAD]
Conditions: for IC50: curve of first compound; for viability, T/C: stronger effect = lower value
Text: DNA G-quadruplex Stabilizer Agents in Combinations in Complex Spheroids
A high-throughput screen of multi-cell type tumor spheroids was designed to identify active combinations of DNA G-quadruplex stabilizer agents and targeted small molecules. Complex spheroids include a stromal component modeled by human endothelial cells (HUVEC) and fibroblasts modeled by human mesenchymal stem cells (MSCs). The concentration ranges selected for each drug and investigational agent were based upon clinically achievable concentrations if the clinical Cmax of the agent was known.
Compounds. The drugs and investigational agents: pidnarulex (CX-5461; NSC782164), APTO-253 (NSC789042), BRACO-19 (NSC847499), peposertib (NSC802822), ceralasertib (NSC780249), elimusertib (NSC800525), camonsertib (NSC841442), AZD-1390 (NSC803789), olaparib (NSC753686), talazoparib (NSC767125), ART-558 (NSC835418), sotorasib (NSC818433), MRTX-1133 (NSC836407), SN-38 (NSC673596), topotecan (NSC609699), etoposide (NSC141540), doxorubicin (NSC123127), gemcitabine (NSC613327), 5-fluorouracil (NSC19893), paclitaxel (NSC125973), vemurafenib (NSC761431), panobinostat (NSC761190), R-306465 (JNJ-16241199; NSC773264), adavosertib (NSC754352), TP-3654 (NSC805149), carboplatin (NSC241240), KSQ-4279 (NSC840948), and staurosporine (NSC755774) were obtained from the National Cancer Institute (NCI) Developmental Therapeutics Program Chemical Repository (34). The FDA-approved anticancer drug set is available from the NCI Developmental Therapeutics Program. […] The stock solutions were prepared in dimethyl sulfoxide (DMSO, Sigma-Aldrich, St. Louis, MO, cat. D2650) at 800-fold the tested concentration and stored at -70 degrees C prior to their use. All drugs and investigational agents were tested over a range starting from a high concentration at or near the clinical Cmax and decreasing in half-log increments. If the clinical Cmax for an agent had not been determined, the highest concentration tested was 10 microM.
2.3 Cell Culture. All cells were maintained in an incubator at 37 degrees C and 5% CO2 with 95% humidity. The PDC lines were cultured according to standard operating procedures established by the NCI PDMR. All PDCs were thawed and cultured in Matrigel-coated flasks prepared with a working solution of 1X Ham's F-12 nutrient mix, without supplementation (Invitrogen, cat. 11765054), 100 U/mL penicillin-streptomycin (Invitrogen, cat. 15140122), and 2.5% Matrigel (Corning Inc., cat. 354248) for the first three passages. The 857933-349-R-J2-PDC line was cultured in 6C/Colon 1B media, which includes advanced DMEM/F-12 (Thermo Fisher Scientific, cat. 12634028), 10 mM HEPES (Thermo Fisher Scientific, cat. 15630080), 1X GlutaMAX supplement (Thermo Fisher Scientific, cat. 35050061), 0.1 mg/mL primocin (InvivoGen, cat. ant-pm-2), 10% defined fetal bovine serum, heat inactivated (HyClone Laboratories Inc., cat. SH30070.03HI), 50% L-WRN conditioned media (ATCC, cat. CRL-3276), 1.25 mM N-Acetyl-L-cysteine (Sigma-Aldrich, cat. A9165), 10 mM nicotinamide (Sigma-Aldrich, cat. N0636), 1X B-27 supplement (Thermo Fisher Scientific, cat. 17504044), 1X N-2 supplement (Thermo Fisher Scientific, cat. 17502048), 10 microM Y-27632 dihydrochloride (Tocris Bioscience, cat. 1254), and 50 ng/mL human EGF recombinant protein (Thermo Fisher Scientific, cat. PHG0311). The 485176-168-R4-J1-PDC line was cultured in Panc media, which includes all 6C/Colon 1B media components plus 100 ng/mL human FGF-10 (Thermo Fisher Scientific, cat. 100-26), 500 nM SB-431542 (Selleckchem, cat. S1067), and gastrin (Tocris, cat. 3006).
[…]

[1] = second compound 0.0316 µM, first compound 0.0316 µM
[2] = second compound 0.0316 µM, first compound 0.316 µM
[3] = second compound 0.1 µM, first compound 0.0316 µM
[4] = second compound 0.1 µM, first compound 0.316 µM
[5] = second compound 0.316 µM, first compound 0.0316 µM
[6] = second compound 0.316 µM, first compound 0.316 µM
[7] = second compound 1 µM, first compound 0.0316 µM
[8] = second compound 1 µM, first compound 0.316 µM
[9] = second compound 3.16 µM, first compound 0.0316 µM
[10] = second compound 3.16 µM, first compound 0.316 µM
[11] = second compound 10 µM, first compound 0.0316 µM
[12] = second compound 10 µM, first compound 0.316 µM
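Further: spheroids exposed to drugs for seven days.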
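Wherever viability, T/C is given: 100% = DMSO vehicle control viability.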

## Cn1ncnc1[C@H]1c2n[nH]c(=O)c3cc(F)cc(c23)N[C@@H]1c1ccc(F)cc1 + CN(C)c1ccc(Nc2c3ccc(NC(=O)CCN4CCCC4)cc3nc3cc(NC(=O)CCN4CCCC4)ccc23)cc1
Second compound 0.0316 µM
  IC50: > 316 nM
Second compound 0.1 µM
  IC50: > 316 nM
Second compound 0.316 µM
  IC50: > 316 nM
Second compound 1 µM
  IC50: > 316 nM
Second compound 3.16 µM
  IC50: > 316 nM
Second compound 10 µM
  IC50: < 0.999 nM
Second compound 0.0316 µM, first compound 0.000999 µM
  viability, T/C: 81.5%
Second compound 0.0316 µM, first compound 0.00316 µM
  viability, T/C: 96.6%
Second compound 0.0316 µM, first compound 0.00999 µM
  viability, T/C: 85.2%
[1]
  viability, T/C: 88.2%
Second compound 0.0316 µM, first compound 0.0999 µM
  viability, T/C: 94.6%
[2]
  viability, T/C: 97.8%
Second compound 0.1 µM, first compound 0.000999 µM
  viability, T/C: 90.3%
Second compound 0.1 µM, first compound 0.00316 µM
  viability, T/C: 81.3%
Second compound 0.1 µM, first compound 0.00999 µM
  viability, T/C: 90.7%
[3]
  viability, T/C: 84.7%
Second compound 0.1 µM, first compound 0.0999 µM
  viability, T/C: 70.4%
[4]
  viability, T/C: 64.3%
Second compound 0.316 µM, first compound 0.000999 µM
  viability, T/C: 68%
Second compound 0.316 µM, first compound 0.00316 µM
  viability, T/C: 62.4%
Second compound 0.316 µM, first compound 0.00999 µM
  viability, T/C: 69.6%
[5]
  viability, T/C: 61.3%
Second compound 0.316 µM, first compound 0.0999 µM
  viability, T/C: 61.9%
[6]
  viability, T/C: 67.4%
Second compound 1 µM, first compound 0.000999 µM
  viability, T/C: 57.5%
Second compound 1 µM, first compound 0.00316 µM
  viability, T/C: 51%
Second compound 1 µM, first compound 0.00999 µM
  viability, T/C: 42.3%
[7]
  viability, T/C: 58.1%
Second compound 1 µM, first compound 0.0999 µM
  viability, T/C: 48%
[8]
  viability, T/C: 52.8%
Second compound 3.16 µM, first compound 0.000999 µM
  viability, T/C: 62.4%
Second compound 3.16 µM, first compound 0.00316 µM
  viability, T/C: 60.7%
Second compound 3.16 µM, first compound 0.00999 µM
  viability, T/C: 54.5%
[9]
  viability, T/C: 60.7%
Second compound 3.16 µM, first compound 0.0999 µM
  viability, T/C: 59.9%
[10]
  viability, T/C: 52.7%
Second compound 10 µM, first compound 0.000999 µM
  viability, T/C: 47.2%
Second compound 10 µM, first compound 0.00316 µM
  viability, T/C: 43.1%
Second compound 10 µM, first compound 0.00999 µM
  viability, T/C: 55.8%
[11]
  viability, T/C: 47.6%
Second compound 10 µM, first compound 0.0999 µM
  viability, T/C: 57.1%
[12]
  viability, T/C: 54.2%

## O=C(c1cc(Cc2n[nH]c(=O)c3ccccc23)ccc1F)N1CCN(C(=O)C2CC2)CC1 + CN(C)c1ccc(Nc2c3ccc(NC(=O)CCN4CCCC4)cc3nc3cc(NC(=O)CCN4CCCC4)ccc23)cc1
Second compound 0.0316 µM
  IC50: > 10000 nM
Second compound 0.1 µM
  IC50: > 10000 nM
Second compound 0.316 µM
  IC50: > 10000 nM
Second compound 1 µM
  IC50: > 10000 nM
Second compound 3.16 µM
  IC50: > 10000 nM
Second compound 10 µM
  IC50: < 31.6 nM
[1]
  viability, T/C: 76.4%
Second compound 0.0316 µM, first compound 0.1 µM
  viability, T/C: 83.4%
[2]
  viability, T/C: 91.8%
Second compound 0.0316 µM, first compound 1 µM
  viability, T/C: 125%
Second compound 0.0316 µM, first compound 3.16 µM
  viability, T/C: 77.4%
Second compound 0.0316 µM, first compound 10 µM
  viability, T/C: 82%
[3]
  viability, T/C: 98.9%
Second compound 0.1 µM, first compound 0.1 µM
  viability, T/C: 100%
[4]
  viability, T/C: 97.6%
Second compound 0.1 µM, first compound 1 µM
  viability, T/C: 84.4%
Second compound 0.1 µM, first compound 3.16 µM
  viability, T/C: 76%
Second compound 0.1 µM, first compound 10 µM
  viability, T/C: 88.1%
[5]
  viability, T/C: 75.5%
Second compound 0.316 µM, first compound 0.1 µM
  viability, T/C: 73.8%
[6]
  viability, T/C: 69.5%
Second compound 0.316 µM, first compound 1 µM
  viability, T/C: 65%
Second compound 0.316 µM, first compound 3.16 µM
  viability, T/C: 81.4%
Second compound 0.316 µM, first compound 10 µM
  viability, T/C: 68.6%
[7]
  viability, T/C: 71.4%
Second compound 1 µM, first compound 0.1 µM
  viability, T/C: 55.4%
[8]
  viability, T/C: 49.8%
Second compound 1 µM, first compound 1 µM
  viability, T/C: 52.9%
Second compound 1 µM, first compound 3.16 µM
  viability, T/C: 52%
Second compound 1 µM, first compound 10 µM
  viability, T/C: 55.5%
[9]
  viability, T/C: 52.7%
Second compound 3.16 µM, first compound 0.1 µM
  viability, T/C: 53.4%
[10]
  viability, T/C: 52.1%
Second compound 3.16 µM, first compound 1 µM
  viability, T/C: 55.6%
Second compound 3.16 µM, first compound 3.16 µM
  viability, T/C: 48.5%
Second compound 3.16 µM, first compound 10 µM
  viability, T/C: 53.1%
[11]
  viability, T/C: 41.7%
Second compound 10 µM, first compound 0.1 µM
  viability, T/C: 63.3%
[12]
  viability, T/C: 48.9%
Second compound 10 µM, first compound 1 µM
  viability, T/C: 57%
Second compound 10 µM, first compound 3.16 µM
  viability, T/C: 55.2%
Second compound 10 µM, first compound 10 µM
  viability, T/C: 67.3%
